Results taken from patent US20240116999A1, “CONFORMATIONALLY CONSTRAINED GLUCAGON ANALOGUES AND THEIR USE IN GLUCAGON-SINGLE CHAIN INSULIN FUSION PROTEINS” (THE TRUSTEES OF INDIANA UNIVERSITY, priority 2021, published 2024).
Bridge positions count the residues as written; N and C are the ends. Square brackets hold non-standard residues; d marks the D form. Ends that are not written are not given here. Peptide text beside a SMILES is read from it. Orn = NCCC[C@H](N)C(=O)O

Experiments:
[1] = target: glucagon receptor (Homo sapiens, UniProt P47871); experiment: Cell-based cyclic AMP (cAMP) activity assay; conditions: for EC50: FIG. 8B, HEK-293 cells overexpressing glucagon receptor, read-out: EC50 (cAMP production)
glucagon receptor, sequence (P47871 26-477, species assumed): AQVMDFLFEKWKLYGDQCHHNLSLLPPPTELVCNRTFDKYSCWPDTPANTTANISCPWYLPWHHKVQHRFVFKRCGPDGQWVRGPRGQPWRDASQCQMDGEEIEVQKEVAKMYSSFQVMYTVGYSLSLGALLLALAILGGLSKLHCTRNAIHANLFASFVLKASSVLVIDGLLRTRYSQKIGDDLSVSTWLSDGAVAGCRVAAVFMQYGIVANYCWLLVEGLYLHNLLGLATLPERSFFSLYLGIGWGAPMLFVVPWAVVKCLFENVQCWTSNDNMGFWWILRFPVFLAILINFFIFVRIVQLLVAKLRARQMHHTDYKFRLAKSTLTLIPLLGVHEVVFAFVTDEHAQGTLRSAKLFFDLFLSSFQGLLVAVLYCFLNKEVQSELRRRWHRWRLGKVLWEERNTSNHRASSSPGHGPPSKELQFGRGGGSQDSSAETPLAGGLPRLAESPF
Protocol: Cell-based Activity Assays. We generated a cAMP assay on HepG2 cells transiently transfected with the glucagon receptor (GCGR). The GCGR gene with C-terminal Flag tag was synthesized and ligated to a pcDNA 3.1 vector by Genscript. A plate of HepG2 cells was grown to 70% confluence and then transfected with 15 μg plasmid. […] Then, cAMP was measured following the instructions of the LANCETM Ultra cAMP Kit (PerkingElmer) using 3 technical replicates per point. This is a TR-FRET assay based on the competition between a europium-labeled cAMP and sample cAMP for binding to cAMP-specific labeled antibodies. In the LANCE cAMP assay, a higher sample cAMP (higher glucagon activity) translates to lower signal.

[2] = Thioflavin T (ThT) fibrillation assay; format: physicochemical; conditions: for formation of amyloid-like fibrils: FIG. 15, month-long assay, 100 μM, pH 7.4, 37° C.; for fibril formation: FIG. 5, relative to native glucagon
Protocol: Fibrillation Assays. We employed an automated plate-based fluorescent device to monitor the time course of peptide fibrillation using a Thioflavin T (ThT) assay. This assay is based on the THT fluorescence emission at 480 nm upon binding to mature fibrils when excited at 440 nm. The assay was performed by preparing stock solutions of the fusion protein and the individual peptides in either NaCl 0.9% (pH 2.5) or PBS (pH 7.4). Our experience has identified 100-μM final concentration as optimal fibrillation conditions for glucagon analogues. Stock solutions were diluted with NaCl 0.9% or 1X PBS buffer, pH adjusted (with 1N HCl or 1N NaOH) mixed with Thioflavin-T (THT) at a final concentration of 16 μM, centrifuged, and 250 μl of the sample were placed on a 96-well plate with 4-10 technical replicates. Measurements were done every 15 minutes and the sample agitated at 1096 cpm at 37° C. on a Synergy H1 microplate reader (BioTek, Winooski, VT). The lag time, defined as the time-point at which fibrillation starts its exponential phase, was considered as the point at which fluorescence was 3 times the background signal.

[3] = test system: normal rats; experiment: Stability assay: samples incubated at 37° C., then activity tested; format: in vivo, rat; conditions: FIG. 11; 150 μg/ml in 50 mM Tris buffer pH 8.0, 37° C., mild agitation and rotation; tested t=0, day 3, day 7
Protocol: Glucagon Activity Assays. The glycemic activities of glucagon analogues were tested (Ismail-Beigi ,Case Western Reserve University) in normal male rats (250-350 g) that were fasted for 4 h before the injection and not fed during the course of the experiment (4-5 rats per dose of glucagon in parallel). Glucagon or analogues were prepared (150 μg/ml in sterile 50 mM Tris-HCl buffer (pH 8.0)) and administered by subcutaneous injections (40.1 nmol/kg (˜50 ug/333 g rat)) in an injection volume of 200 μl/333 g rat. Rats were grouped according to their 2nd measured starting blood-glucose concentrations to ensure similar starting values at time=0. For in vivo dose-response studies a series of doses (40.1, 8.0, 1.6, 0.32, 0.064, and 0.013 nmol/kg) was tested in groups of 4-5 rats at each dose. Diluent volume was 200 μl/333 g rat. Experiments were repeated at least twice, and the results were averaged. The rise in blood glucose values were corrected by any changes observed in diluent-injected rats.
To test for stability of glucagon and its analogues, samples (150 μg/ml in 50 mM Tris-HCl buffer (pH 8.0)) were incubated at 37° C. with mild agitation and rotation. Samples were tested as described above after varying periods of incubation.

[4] = test system: normal rats; experiment: In vivo glucagon activity assay in normal rats; parameters: species or system rat; conditions: for in vivo glucagon activity (rise in blood glucose): subcutaneous injection
Protocol: Glucagon Activity Assays. […] Glucagon or analogues were prepared (150 μg/ml in sterile 50 mM Tris-HCl buffer (pH 8.0)) and administered by subcutaneous injections (40.1 nmol/kg (˜50 ug/333 g rat)) in an injection volume of 200 μl/333 g rat. Rats were grouped according to their 2nd measured starting blood-glucose concentrations to ensure similar starting values at time=0. For in vivo dose-response studies a series of doses (40.1, 8.0, 1.6, 0.32, 0.064, and 0.013 nmol/kg) was tested in groups of 4-5 rats at each dose. Diluent volume was 200 μl/333 g rat. Experiments were repeated at least twice, and the results were averaged. The rise in blood glucose values were corrected by any changes observed in diluent-injected rats.

[5] = test system: STZ (diabetic) rats; experiment: In vivo assay in STZ (diabetic) rats, subcutaneous injection; parameters: species or system rat
Text: FIG. 17 presents an in vivo assay done in STZ rats.
FIG. 18 presents another in vivo assay done in STZ rats. The four fusion proteins used in FIG. 17 were subcutaneously injected at doses of 23.8 nmol/kg per rat. […] In this study both fusion proteins carrying an active SCI analogue had similar activities.

[6] = pH 2.5, 37° C., constant agitation

**Q.** For `CSCC[C@H](NC(=O)[C@H](CC(C)C)NC(=O)[C@H](Cc1c[nH]c2ccccc12)NC(=O)[C@H](CCC(N)=O)NC(=O)[C@@H](NC(=O)[C@H](Cc1ccccc1)NC(=O)[C@H](CC(=O)O)NC(=O)[C@H](CCC(N)=O)NC(=O)[C@H](C)NC(=O)[C@H](CCCN)NC(=O)[C@H](CCCN)NC(=O)[C@H](CO)NC(=O)[C@H](CC(=O)O)NC(=O)[C@H](CC(C)C)NC(=O)[C@H](Cc1ccc(O)cc1)NC(=O)[C@H](CCCN)NC(=O)[C@H](CO)NC(=O)[C@H](Cc1ccc(O)cc1)NC(=O)[C@H](CC(=O)O)NC(=O)[C@H](CO)NC(=O)[C@@H](NC(=O)[C@H](Cc1ccccc1)NC(=O)[C@@H](NC(=O)CNC(=O)[C@H](CCC(N)=O)NC(=O)[C@H](CO)NC(=O)[C@@H](N)Cc1c[nH]cn1)[C@@H](C)O)[C@@H](C)O)C(C)C)C(=O)N[C@@H](CC(N)=O)C(=O)N[C@H](C(=O)N[C@@H](CCC(=O)O)C(=O)N[C@@H](CCC(=O)O)C(=O)N[C@@H](CCCCN)C(=O)O)[C@@H](C)O` [SEQ ID NO: 21, HSQGTFTSDYSOYLDSOOAQDFVQWLMNTEEK] (H-HSQGTFTSDYS[Orn]YLDS[Orn][Orn]AQDFVQWLMNTEEK-OH; N-terminus and C-terminus assumed), which EC50 [1] is on record?
**A.** Its EC50 is 93.5 nM.

**Q.** What about the “formation of amyloid-like fibrils” value [2] of the same molecule?
**A.** The value was “formed amyloid-like fibrils”.

**Q.** Which EC50 [1] does the source give for `CSCC[C@H](NC(=O)[C@H](CC(C)C)NC(=O)[C@H](Cc1c[nH]c2ccccc12)NC(=O)[C@H](CCC(N)=O)NC(=O)[C@@H](NC(=O)[C@H](Cc1ccccc1)NC(=O)[C@H](CC(=O)O)NC(=O)[C@H](CCC(N)=O)NC(=O)[C@H](C)NC(=O)[C@H](CCCN)NC(=O)[C@@H]1CCC(=O)NCCCC[C@H](NC(=O)[C@H](CCCN)NC(=O)[C@H](CO)NC(=O)[C@H](Cc2ccc(O)cc2)NC(=O)[C@H](CC(=O)O)NC(=O)[C@H](CO)NC(=O)[C@@H](NC(=O)[C@H](Cc2ccccc2)NC(=O)[C@@H](NC(=O)CNC(=O)[C@H](CCC(N)=O)NC(=O)[C@H](CO)NC(=O)[C@@H](N)Cc2c[nH]cn2)[C@@H](C)O)[C@@H](C)O)C(=O)N[C@@H](CC(C)C)C(=O)N[C@@H](CC(=O)O)C(=O)N[C@@H](CO)C(=O)N1)C(C)C)C(=O)N[C@@H](CC(N)=O)C(=O)N[C@H](C(=O)N[C@@H](CCC(=O)O)C(=O)N[C@@H](CCC(=O)O)C(=O)N[C@@H](CCCCN)C(=O)O)[C@@H](C)O` [SEQ ID NO: 23, HSQGTFTSDYSOKLDSEOAQDFVQWLMNTEEK] (H-HSQGTFTSDYS[Orn]KLDSE[Orn]AQDFVQWLMNTEEK-OH; lactam 13-17; N-terminus and C-terminus assumed) here?
**A.** Its EC50 is 126 nM.

**Q.** What about the “biological activity after incubation (stability)” value [3] of the same molecule?
**A.** Its value is “maintained full biological activity”.

**Q.** What about the “time without fibril formation” value ([2]; FIG. 7, phosphate-buffered saline pH 7.4, 100 μM, 37° C., constant agitation) of the same molecule?
**A.** The value was greater than 11 days.

**Q.** What about the “formation of amyloid-like fibrils” value [2] of the same molecule?
**A.** The value was “did not form amyloid-like fibrils within the duration of the experiment”.

**Q.** What about the “rise in blood glucose levels” value ([4]; FIG. 12, 8 nmol/kg rat dose) of the same molecule?
**A.** Its value is “minor raise”.

**Q.** What about the “rise in blood glucose levels, dose-response” value ([4]; FIG. 12, doses 0.32, 1.6, 8 and 40 nmol/kg rat) of the same molecule?
**A.** The value was “only at the maximum dose”.

**Q.** And the “in vivo glucagon activity (rise in blood glucose)” value (shortened to “in vivo glucagon activity”) ([4]; FIGS. 9, 10, 13)?
**A.** Its value is “maximal activity”.

**Q.** And the “in vivo glucagon activity” value ([4]; FIGS. 9, 10, 13, listed as [Lys13, Glu17]-glucagon-EEK lactam)?
**A.** The value was “active”.

**Q.** With `CC(C)C[C@H](NC(=O)[C@H](Cc1c[nH]c2ccccc12)NC(=O)[C@H](CCCCN)NC(=O)[C@@H](NC(=O)[C@H](Cc1ccccc1)NC(=O)[C@H](CCC(=O)O)NC(=O)[C@H](CCC(=O)O)NC(=O)[C@H](C)NC(=O)[C@H](CCCNC(=N)N)NC(=O)[C@H](C)NC(=O)C(C)(C)NC(=O)[C@H](CC(=O)O)NC(=O)[C@H](CC(C)C)NC(=O)[C@H](Cc1ccc(O)cc1)NC(=O)[C@H](CCCCN)NC(=O)[C@H](CO)NC(=O)[C@H](Cc1ccc(O)cc1)NC(=O)[C@H](CC(=O)O)NC(=O)[C@H](CO)NC(=O)[C@@H](NC(=O)[C@H](Cc1ccccc1)NC(=O)[C@@H](NC(=O)CNC(=O)[C@H](CCC(N)=O)NC(=O)[C@H](CO)NC(=O)[C@@H](N)Cc1c[nH]cn1)[C@@H](C)O)[C@@H](C)O)C(C)C)C(=O)N[C@@H](CCC(=O)O)C(=O)N[C@@H](CO)C(=O)N[C@H](C(=O)O)[C@@H](C)O` [dasiglucagon, reference compound] as the molecule, how does the “biological activity after incubation (stability)” value [3] read?
**A.** Its value is “maintained full biological activity”.

**Q.** Which “biological activity relative to insulin Lispro (KP-insulin)” value ([5]; FIG. 14, STZ (diabetic) rats, 30-μg dose of SCI vs 15-μg dose of KP-insulin) does the source give for “FVNQHLCGSHLVEALYLVCGEOGFFYTPETEEGPOOGIVEQCCQSICSLEQLENYCN (FVNQHLCGSHLVEALYLVCGEXGFFYTPETEEGPXXGIVEQCCQSICSLEQLENYCN; ornithine residues; insulin peptide analog; (22)..(22) Xaa at position 22 is Orn.; (35)..(35) Xaa at position 35 is Orn.; (36)..(36) Xaa at position 36 is Orn.) [SEQ ID NO: 71, 57-residue single-chain insulin (SCI) analogue lacking internal tryptic sites]” here?
**A.** Its value is “slightly higher activity than a 15-μg dose of KP-insulin”.

**Q.** And the “formation of amyloid-like fibrils” value [2]?
**A.** The value was “did not form amyloid-like fibrils within the duration of the experiment”.

**Q.** For “HSQGTFTSDYSKKLDSERAQDFVQWLMNT (lactam 13-17) [SEQ ID NO: 10, a lactam bridge connects the side chains of variant residues K13 and E17]”, which “in vivo glucagon activity” value ([4]; FIGS. 9, 10, 13, listed as [Lys13, Glu17]-glucagon lactam) is on record?
**A.** Its value is “active”.

**Q.** For “HSQGTFTSDYSKKLDSERAQDFVQWLMNT (lactam 13-17) [[Lys13, Glu17]-Glucagon linear, linear [Lys13, Glu17] analogue without Orn substitutions or C-terminal EEK extension]”, which “in vivo glucagon activity” value ([4]; FIGS. 9, 10, 13) is on record?
**A.** The value was “only analogue that is active, other than wild-type glucagon, was the [Lys13, Glu17]-glucagon lactam”.

**Q.** For “HSQGTFTSDYSKYLDSRRAQDFVQWLMNTK [SEQ ID NO: 3]”, which fibril formation [2, 6] is on record?
**A.** The fibril formation was “delay fibril formation”.

**Q.** Which fibril formation [2, 6] does the source give for “HSQGTFTSDYSKYLDSRRAQDFVQWLMNTO [SEQ ID NO: 5]” here?
**A.** Its fibril formation is “delay fibril formation”.

**Q.** And the fibril formation ([2]; pH 7.4, 37° C., constant agitation)?
**A.** The fibril formation was “delay fibril formation”.

**Q.** With “HSQGTFTSDYSKYLDSRRAQDFVQWLMNTR (glucagon peptide analog) [SEQ ID NO: 2]” as the molecule, how does the fibril formation [2, 6] read?
**A.** The fibril formation was “delay fibril formation”.

**Q.** With “HSQGTFTSDYSOKLDSEOAQDFVQWLMNTEEK (HSQGTFTSDYS[Orn]KLDSE[Orn]AQDFVQWLMNTEEK; lactam 13-17) [[Lys13, Glu17]-glucagon-EEK linear, includes the [Lys13-Glu17] substitutions but not the side-chain lactam bond]” as the molecule, how does the “potency (cAMP assay)” value ([1]; FIG. 8, relative to the lactam analogue) read?
**A.** Its value is “markedly diminished potency”.

**Q.** And the “in vivo glucagon activity” value ([4]; FIGS. 9, 10, 13)?
**A.** Its value is “inactive”.

**Q.** For “HSQGTFTSDYSOYLDSOOAQDFV[D-Cys]WLCNTEEK [[D-Cys24-Cys27] L]”, which “in vivo glucagon activity” value ([4]; FIGS. 9, 10, 13) is on record?
**A.** Its value is “only analogue that is active, other than wild-type glucagon, was the [Lys13, Glu17]-glucagon lactam”.

**Q.** For “HSQGTFTSKYSOELDSOOAQDFVQWLMNTEEK (HSQGTFTSKYS[Orn]ELDS[Orn][Orn]AQDFVQWLMNTEEK; lactam 9-13) [SEQ ID NO: 24]”, which “in vivo glucagon activity” value ([4]; FIGS. 9, 10, 13) is on record?
**A.** The value was “inactive”.

**Q.** For “HSQGTFTSKYSOELDSOOAQDFVQWLMNTEEKFVNQHLCGSHLVEALYLVCGEOGFFYTPETEEGPOOGIVEQCCQSICSLEQLENYCN [SEQ ID NO: 75]”, which “activity at 23.8 nmol/kg relative to the 12-nmol/kg rat doses” value ([5]; FIG. 18 vs FIG. 17, STZ rats) is on record?
**A.** Its value is “increased activity at the increased dose”.

**Q.** For human insulin [reference compound], which “formation of amyloid-like fibrils” value [2] is on record?
**A.** Its value is “formed amyloid-like fibrils”.

**Q.** For insulin Lispro [reference compound], which “formation of amyloid-like fibrils” value [2] is on record?
**A.** The value was “formed amyloid-like fibrils”.
